The supplement of paper PMC4862054
“And” between values parts separate entries of the source, which are not always exact repeats. Equal values may be shown once.

Legend:
Details in all cases: incubation time: 72 h
CAL-85-1 [1] = experiment: normalised viability (% of control), CellTiter-Blue; higher = more viable cells (100 = DMSO, 0 = benzethonium chloride kill control)
How it was run: (§1)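 The reported figure is normalised viability at a single listed concentration of the series. Breast cancer cell lines (20 µl suspension) went onto 384-well plates holding compound in 5 µl medium for 72 h. CellTiter-Blue (2.5 µl, 2 h, 37 °C) was read by fluorescence at 560/590 nm, and each plate was scaled to vehicle at 100 and a positive kill control at 0.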

CAL-51 [2] = experiment: as above
How it was run: as §1

HCC1937 [3] = experiment: as above
How it was run: as §1

MFM-223 [4] = experiment: as above
How it was run: as §1

HDQ-P1 [5] = experiment: as above
How it was run: as §1

MDA-MB-468 [6] = experiment: as above
How it was run: as §1

BT-549 [7] = experiment: as above
How it was run: as §1

MDA-MB-231 [8] = experiment: as above
How it was run: as §1

HCC1599 [9] = experiment: as above
How it was run: as §1

MDA-MB-453 [10] = experiment: as above
How it was run: as §1

MDA-MB-436 [11] = experiment: as above
How it was run: as §1

CAL-148 [12] = experiment: as above
How it was run: as §1

DU-4475 [13] = experiment: as above
How it was run: as §1

BT-474 [14] = experiment: as above
How it was run: as §1

HCC1143 [15] = experiment: as above
How it was run: as §1

SK-BR-3 [16] = experiment: as above
How it was run: as §1

CAL-120 [17] = experiment: as above
How it was run: as §1

Hs578T [18] = experiment: as above
How it was run: as §1

CAL-85-1 [19] = experiment: normalised response (% of control), CellTiter-Glo; higher = more viable cells (100 = DMSO, 0 = benzethonium chloride kill control)
How it was run: (§2)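 Breast cancer cell lines in 20 µl suspension were added to 384-well plates containing compound at 5 concentrations, spaced in 10-fold steps across a 10,000-fold range chosen for each compound, and incubated for 72 h. CellTox Green fluorescence was read at 485/520 nm, followed by CellTiter-Glo luminescence after 10 min at room temperature. Signals on each plate were normalised so that 0.1 % DMSO equals 100 and a positive kill control equals 0. Every value in the table is the normalised signal at one concentration of the series.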

CAL-51 [20] = experiment: as above
How it was run: as §2

HCC1937 [21] = experiment: as above
How it was run: as §2

MFM-223 [22] = experiment: as above
How it was run: as §2

HDQ-P1 [23] = experiment: as above
How it was run: as §2

MDA-MB-468 [24] = experiment: as above
How it was run: as §2

BT-549 [25] = experiment: as above
How it was run: as §2

MDA-MB-231 [26] = experiment: as above
How it was run: as §2

HCC1599 [27] = experiment: as above
How it was run: as §2

MDA-MB-453 [28] = experiment: as above
How it was run: as §2

MDA-MB-436 [29] = experiment: as above
How it was run: as §2

CAL-148 [30] = experiment: as above
How it was run: as §2

DU-4475 [31] = experiment: as above
How it was run: as §2

BT-474 [32] = experiment: as above
How it was run: as §2

HCC1143 [33] = experiment: as above
How it was run: as §2

SK-BR-3 [34] = experiment: as above
How it was run: as §2

MCF-10A = experiment: as above
How it was run: as §2

CAL-120 [35] = experiment: as above
How it was run: as §2

Hs578T [36] = experiment: as above
How it was run: as §2

| SMILES | normalised viability (CAL-85-1 [1]) | normalised viability (CAL-51 [2]) | normalised viability (HCC1937 [3]) | normalised viability (MFM-223 [4]) | normalised viability (HDQ-P1 [5]) | normalised viability (MDA-MB-468 [6]) | normalised viability (BT-549 [7]) | normalised viability (MDA-MB-231 [8]) | normalised viability (HCC1599 [9]) | normalised viability (MDA-MB-453 [10]) | normalised viability (MDA-MB-436 [11]) | normalised viability (CAL-148 [12]) | normalised viability (DU-4475 [13]) | normalised viability (BT-474 [14]) | normalised viability (HCC1143 [15]) | normalised viability (SK-BR-3 [16]) | normalised viability (CAL-120 [17]) | normalised viability (Hs578T [18]) | normalised response (CAL-85-1 [19]) [%] | normalised response (CAL-51 [20]) [%] | normalised response (HCC1937 [21]) [%] | normalised response (MFM-223 [22]) [%] | normalised response (HDQ-P1 [23]) [%] | normalised response (MDA-MB-468 [24]) [%] | normalised response (BT-549 [25]) [%] | normalised response (MDA-MB-231 [26]) [%] | normalised response (HCC1599 [27]) [%] | normalised response (MDA-MB-453 [28]) [%] | normalised response (MDA-MB-436 [29]) [%] | normalised response (CAL-148 [30]) [%] | normalised response (DU-4475 [31]) [%] | normalised response (BT-474 [32]) [%] | normalised response (HCC1143 [33]) [%] | normalised response (SK-BR-3 [34]) [%] | normalised response (MCF-10A) [%] | normalised response (CAL-120 [35]) [%] | normalised response (Hs578T [36]) [%] |
| --- | --- | --- | --- | --- | --- | --- | --- | --- | --- | --- | --- | --- | --- | --- | --- | --- | --- | --- | --- | --- | --- | --- | --- | --- | --- | --- | --- | --- | --- | --- | --- | --- | --- | --- | --- | --- | --- |
| CC(C)C[C@H](NC(=O)[C@@H](COC(C)(C)C)NC(=O)[C@H](Cc1ccc(O)cc1)NC(=O)[C@H](CO)NC(=O)[C@H](Cc1c[nH]c2ccccc12)NC(=O)[C@H](Cc1cnc[nH]1)NC(=O)[C@@H]1CCC(=O)N1)C(=O)N[C@@H](CCCNC(=N)N)C(=O)N1CCC[C@H]1C(=O)NNC(N)=O [Goserelin] (1 nM) | 87.7% | 110% | 86.5% | 96% | 111% | 91.7% | 93.1% | 103% | 114% | 102% | 102% | 109% | 99.3% | 82.1% | 94.3% | 93.3% | 104% | 106% | 96.4 | 122 | 92.7 | 96.7 | 97.3 | 101 | 105 | 103 | 96 | 108 | 102 | 84.5 | 95.1 | 99.2 | 96.7 | 96.8 | 94.8 | 99.6 | 96.1 |
| Cc1cn(-c2cc(NC(=O)c3ccc(C)c(Nc4nccc(-c5cccnc5)n4)c3)cc(C(F)(F)F)c2)cn1 [Nilotinib] (1 nM) | 82.6% and 95.6% | 106% and 112% | 95.5% and 94% | 94% and 90.9% | 83.1% and 101% | 96% and 99.2% | 107% and 98.7% | 83.9% and 95.6% | 103% and 87.9% | 88.4% and 92.2% | 111% and 89.4% | 91.4% and 96.9% | 110% and 104% | 87.9% and 96% | 87.8% and 80.8% | 93.3% and 92.6% | 82.1% and 80.6% | 97.8% and 107% | 105 | 98.1 | 96.1 | 96 | 96.9 | 106 | 102 | 98.8 | 112 | 101 | 95.7 | 93.1 | 105 | 93.5 | 95.8 | 103 | 95.4 | 98.5 | 100 |
| CO[C@@H]1[C@H](N(C)C(=O)c2ccccc2)C[C@H]2O[C@]1(C)n1c3ccccc3c3c4c(c5c6ccccc6n2c5c31)C(=O)NC4 [Midostaurin] (1 nM) | 112% | 96.4% | 132% | 108% | 108% | 99.5% | 104% | 95.3% | 94.2% | 94.3% | 98.2% | 119% | 100% | 99.7% | 129% | 109% | 113% | 104% | 104 | 104 | 93.5 | 100 | 91.2 | 106 | 101 | 107 | 109 | 92.5 | 83 | 103 | 94 | 97.3 | 101 | 102 | 93.4 | 97.2 | 96.8 |
| CNC(=O)c1ccccc1Sc1ccc2c(/C=C/c3ccccn3)n[nH]c2c1 [Axitinib] (1 nM) | 86.8% | 101% | 110% | 95.5% | 73.7% | 102% | 96.2% | 88.4% | 92.4% | 95.6% | 98% | 94.9% | 115% | 93.5% | 101% | 104% | 77.4% | 97.6% | 99.8 | 78.7 | 107 | 107 | 105 | 105 | 110 | 111 | 103 | 109 | 95.3 | 103 | 104 | 98.6 | 102 | 109 | 101 | 104 | 98.1 |
| Cn1cc(C2=C(c3cn(C4CCN(Cc5ccccn5)CC4)c4ccccc34)C(=O)NC2=O)c2ccccc21 [Enzastaurin] (1 nM) | 86.3% | 114% | 97.2% | 82.1% | 107% | 99% | 113% | 87.5% | 104% | 96.4% | 130% | 98.9% | 108% | 105% | 92.5% | 92.5% | 86.2% | 98.2% | 105 | 61.3 | 96.9 | 103 | 96.8 | 104 | 102 | 98.5 | 102 | 109 | 94.2 | 104 | 101 | 96.4 | 96.6 | 109 | 106 | 98.3 | 105 |
| CC(O)(CS(=O)(=O)c1ccc(F)cc1)C(=O)Nc1ccc(C#N)c(C(F)(F)F)c1 (centres undefined) [Bicalutamide] (1 nM) | 92.2% | 110% | 77% | 94.8% | 100% | 110% | 107% | 111% | 93.8% | 97.8% | 99.1% | 105% | 112% | 113% | 102% | 86.9% | 96% | 112% | 104 | 114 | 101 | 107 | 102 | 107 | 111 | 104 | 109 | 91.7 | 104 | 109 | 99 | 110 | 105 | 106 | 107 | 107 | 99 |
| C/C(=C\c1csc(C)n1)[C@@H]1C[C@@H]2O[C@]2(C)CCC[C@H](C)[C@H](O)[C@@H](C)C(=O)C(C)(C)[C@@H](O)CC(=O)N1 [Ixabepilone] (0.1 nM) | 84% | 110% | 89.2% | 78.8% | 97.2% | 86.7% | 90.8% | 99.1% | 97.3% | 93.5% | 104% | 105% | 107% | 90.4% | 80.9% | 79.6% | 78.8% | 90% | 97.6 | 80 | 98 | 103 | 100 | 104 | 98.8 | 103 | 115 | 127 | 105 | 99.3 | 101 | 104 | 98.5 | 108 | 107 | 95.5 | 100 |
